In patent US5330990A, “Substituted urea compounds and their preparation and use” (Novo Nordisk A/S, priority 1989, dated 1994):
Where a name gives a salt, the structure may show the parent alone.

Target: T1, 5-HT3 receptor (Cavia porcellus, UniProt O70212)
T1 construct: from tissue; host or cells: guinea pig isolated ileum (terminal 15 cm)
T1 sequence (O70212 20-490): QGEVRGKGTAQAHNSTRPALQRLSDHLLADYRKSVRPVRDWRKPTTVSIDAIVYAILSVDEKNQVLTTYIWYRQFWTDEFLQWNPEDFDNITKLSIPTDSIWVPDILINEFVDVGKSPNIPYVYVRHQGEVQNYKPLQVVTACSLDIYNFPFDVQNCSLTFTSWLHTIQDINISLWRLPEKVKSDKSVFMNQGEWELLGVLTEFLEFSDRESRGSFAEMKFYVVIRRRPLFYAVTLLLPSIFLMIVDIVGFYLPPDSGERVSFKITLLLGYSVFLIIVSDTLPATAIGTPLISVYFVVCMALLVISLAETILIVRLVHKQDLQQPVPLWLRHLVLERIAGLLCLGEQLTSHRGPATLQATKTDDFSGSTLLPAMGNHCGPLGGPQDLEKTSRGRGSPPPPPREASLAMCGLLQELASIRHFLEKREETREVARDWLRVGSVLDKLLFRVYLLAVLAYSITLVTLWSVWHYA
Assay: 5HT3-antagonist activity: inhibition of 5-HT-induced contractions of isolated guinea pig ileum in the presence of methysergide
Format: cell-based
Details: not given
Procedure: Compounds of formula (I) were tested for their 5HT3 -antagonist activity using the following method:
5-HT produces contractions of the guinea pig ileum via 2 different receptors. 1) direct contractions via 5-HT2 receptors on the muscle, 2) indirect contractions via 5-HT3 recaptots on intrinsic gut neurones, producing acetylcholine release. By administering 5-HT to lengths of ileum in the presence of methysergide (to block 5-HT2 receptors) you can assay 5-HT3 receptor activity.
Guinea pigs were killed by means of cervical dislocation the terminal 15 cm of ileum removed, and 1.5-2.0 cm lengths prepared and mounted in 10 ml organ baths containing calcium deficient tyrodes of the following composition (mM) NaCl (136.9); KCl (2.68); CaCl2 (0.9); MgCl2 (1.05); NaCO3 (11.9); NaH2 PO4 (0.42); glucose (5.55) and containing methysergide (10^-6 M) maintained at 37° C. and gassed with 95% O2 and 5% CO2. The mechanical activity of the muscle was measured by a HSE 351 isometric transducer connected via a HSE bridge amplifier to a potentiometric pen recorder. Resting tension was 1 g and the tissue left to equilibrate for 1 hour.
First a dose response curve is obtained to acetylcholine on each tissue. Then one tissue is incubated for 20 min with tyrode and three with tyrode plus the putative 5-HT3 antagonist. After this incubation dose response curves to 5-HT are constructed to 5-HT in all 4 tissues (one control 3+test drug). Contact time for 5-HT 30 sec.
The maximum response to acetylcholine for each tissue is measured and the responses to 5-HT calculated as percentage maximum of the acetylcholine (Ach) maximum response in that tissue. The peak of the 5-HT response is measured.
For each tissue the concentration of 5-HT giving 100% of the maximum acetylcholine response (measured at 30 sac) is quoted.
The effect of a drug is quantified as the ratio of the concentration of 5-HT producing a 100% maximal Ach response in the presence and absence of the antagonist (dose ratio). The figure quoted is the concentration of the antagonist giving a dose ratio of 2, (A2).

For `O=C(Nc1ccccc1-c1nc(C2CC2)no1)NC1CN2CCC1CC2` (stereo not drawn) [Example 10, N-(2-(3-Cyclopropyl-1,2,4-oxadiazol-5-yl)-phenyl)-N^1-(3-quinuclidinyl)urea], which Kb is on record?
The Kb was 283 nM.

Same assay, conditions: guinea pig ileum; methysergide 10^-6 M; 37° C.; 20 min incubation with antagonist; 5-HT contact time 30 sec; dose ratio at 100% maximal Ach response; read-out: A2 (concentration of the antagonist giving a dose ratio of 2) (converted)

For `CN1[C@@H]2CCC[C@H]1C[C@@H](NC(=O)Nc1ccccc1-c1nc(-c3ccccc3)no1)C2` [Example 11, N-(Endo-9-methyl-9-azabicyclo[3.3.1]non-3-yl)-N ^1-(2-(3-phenyl-1,2,4-oxadiazol-5-yl)phenyl)urea], which Kb is on record?
Its Kb is 24 nM.

Which Kb does the source give for `CCCCc1noc(-c2ccccc2NC(=O)N[C@H]2C[C@H]3CC[C@@H](C2)N3C)n1` [Example 7, N-(2-(3-Butyl-1,2,4-oxadiazol-5-yl)phenyl)-N^1-(endo-8-methyl-8-azabicyclo[3.2.1]oct-3-yl)urea, (CO2 H)2] here?
The Kb was 13 nM.

For `CN1[C@@H]2CC[C@H]1C[C@@H](NC(=O)Nc1ccccc1C=NOCC1CC1)C2` [Example 15, N-(Endo-8-methyl-8-azabicyclo[3.2.1]oct-3-yl)-N^1-(2-(N-cyclo-propylmethoxyiminomethyl)phenyl)urea, HCl], which Kb is on record?
Its Kb is 5.05 nM.

How did the Kb turn out when `CN1[C@@H]2CCC[C@H]1C[C@@H](NC(=O)Nc1ccccc1-c1nc(C3CC3)no1)C2` [Example 8, N-(2-(3-Cyclopropyl-1,2,4-oxadiazol-5-yl)-phenyl)-N^1-(endo-9-methyl-9-azabicyclo[3.3.1]non-3-yl)urea, HCl] was run?
The Kb was 3.41 nM.

Which Kb does the source give for `CN1[C@@H]2CC[C@H]1C[C@@H](NC(=O)Nc1ccccc1-c1nc(C3CC3)no1)C2` [Example 5, N-(2-(3-Cyclopropyl-1,2,4-oxadiazol-5-yl)phenyl)-N^1-(endo-8-methyl-8-azabicyclo[3.2.1]oct-3-yl)urea HCl] here?
Its Kb is 43.5 nM.

`Cc1noc(-c2ccccc2NC(=O)N[C@H]2C[C@H]3CC[C@@H](C2)N3C)n1` [Example 6, N-(Endo-8-methyl-8-azabicyclo[3.2.1]oct-3-yl) -N^1-(2-(3-methyl-1,2,4-oxadiazol-5-yl)-phenyl)urea, HCl] was tested. Which Kb did it give?
Its Kb is 293 nM.

With `CON=Cc1ccccc1NC(=O)N[C@H]1C[C@H]2CCC[C@@H](C1)N2C` [Example 18, N-(2-(N-Methoxyiminomethyl)phenyl)-N^1-(endo-9-methyl-9-azabicyclo[3.3.1]non-3-yl)urea] as the compound, how does the Kb read?
Its Kb is 36.3 nM.

For `CCON=Cc1ccccc1NC(=O)N[C@H]1C[C@H]2CC[C@@H](C1)N2C` [Example 16, N-(Endo-8-methyl-8-azabicyclo[3.2.1]oct-3-yl)-N^1-(2-(N-ethoxyiminomethyl)phenyl)urea, HCl], which Kb is on record?
Its Kb is 36.3 nM.
